Test results: PubChem BioAssay (NCI)
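Five concentrations, 48 hours, 96-well plates. GI50 marks 50% less growth. TGI denotes the concentration required for complete inhibition of growth.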

Experiments:
Assay in all cases: inhibition of tumour cell growth, NCI panel, 48 h
OVCAR-5 ovarian = tested on: OVCAR-5 ovarian
HT29 colon = tested on: HT29 colon
COLO 205 colon = tested on: COLO 205 colon
T-47D breast = tested on: T-47D breast
NCI-H226 lung = tested on: NCI-H226 lung
MDA-MB-435 = tested on: MDA-MB-435
MDA-MB-231 breast = tested on: MDA-MB-231 breast
SF-539 CNS = tested on: SF-539 CNS
HS 578T breast = tested on: HS 578T breast
HCT-116 colon = tested on: HCT-116 colon

## COc1ccc(Nc2ncccc2/C=C/C(=O)c2cc(OC)c(OC)c(OC)c2)cc1
OVCAR-5 ovarian
  GI50: 1.97 µM
  TGI: 3.83 µM
HT29 colon
  GI50: 1.6 µM
  TGI: 3.16 µM
COLO 205 colon
  GI50: 1.69 µM
  TGI: 3.06 µM
T-47D breast
  GI50: 1.67 µM
  TGI: 4.03 µM
NCI-H226 lung
  GI50: 1.37 µM
  TGI: 2.81 µM
MDA-MB-435
  GI50: 1.46 µM
  TGI: 3.36 µM
MDA-MB-231 breast
  GI50: 1.94 µM
  TGI: 5.74 µM
SF-539 CNS
  GI50: 2.04 µM
  TGI: 5.15 µM
HS 578T breast
  GI50: 2.68 µM
  TGI: 9.6 µM
HCT-116 colon
  GI50: 1.02 µM
  TGI: 2.28 µM

## C[N+](C)([O-])CCCNc1c2ccccc2nc2cccc([N+](=O)[O-])c12
OVCAR-5 ovarian
  TGI: 1.57 µM
HT29 colon
  TGI: 0.606 µM
COLO 205 colon
  TGI: 0.322 µM
T-47D breast
  TGI: 3.62 µM
NCI-H226 lung
  TGI: 1.39 µM
MDA-MB-435
  TGI: 0.647 µM
MDA-MB-231 breast
  TGI: 1.48 µM
SF-539 CNS
  TGI: 3.88 µM
HS 578T breast
  TGI: 7.63 µM
HCT-116 colon
  TGI: 1.02 µM

## Nc1c(C(=O)c2cccc(-c3ccc[n+]([O-])c3)c2)cnn1-c1ccc(F)cc1F
OVCAR-5 ovarian
  GI50: > 25 µM
  TGI: > 25 µM
HT29 colon
  GI50: > 25 µM
  TGI: > 25 µM
COLO 205 colon
  GI50: > 25 µM
  TGI: > 25 µM
T-47D breast
  GI50: > 25 µM
  TGI: > 25 µM
NCI-H226 lung
  GI50: > 25 µM
  TGI: > 25 µM
MDA-MB-435
  GI50: 15.2 µM
  TGI: > 25 µM
MDA-MB-231 breast
  GI50: > 25 µM
  TGI: > 25 µM
SF-539 CNS
  GI50: > 25 µM
  TGI: > 25 µM
HS 578T breast
  GI50: > 25 µM
  TGI: > 25 µM
HCT-116 colon
  GI50: > 25 µM
  TGI: > 25 µM

## O=C(Nc1ccc(Cl)cc1)c1cc2c(cc1O)[nH]c1ccccc12
OVCAR-5 ovarian
  GI50: 3.72 µM
  TGI: 16.2 µM
HT29 colon
  GI50: 5.08 µM
  TGI: 17.9 µM
COLO 205 colon
  GI50: 2.39 µM
  TGI: 5.53 µM
T-47D breast
  GI50: 2.37 µM
  TGI: 6.78 µM
NCI-H226 lung
  GI50: 2.52 µM
  TGI: 9.46 µM
MDA-MB-435
  GI50: 2.12 µM
  TGI: 5.85 µM
MDA-MB-231 breast
  GI50: 2.24 µM
  TGI: 6.94 µM
SF-539 CNS
  GI50: 2.34 µM
  TGI: 6.04 µM
HS 578T breast
  GI50: 3.08 µM
  TGI: 14.5 µM
HCT-116 colon
  GI50: 2.95 µM
  TGI: 10.3 µM

## COc1ccc(-c2nsc3c2NC(=O)CC3c2ccc3c(c2)OCO3)cc1 (stereo not given)
OVCAR-5 ovarian
  GI50: 3.19 µM
  TGI: > 100 µM
HT29 colon
  GI50: 0.414 µM
  TGI: 11.3 µM
COLO 205 colon
  GI50: 0.627 µM
  TGI: 3.72 µM
T-47D breast
  GI50: 0.724 µM
  TGI: > 100 µM
NCI-H226 lung
  GI50: 7.28 µM
  TGI: > 100 µM
MDA-MB-435
  GI50: 0.219 µM
  TGI: 0.539 µM
MDA-MB-231 breast
  GI50: 1.13 µM
  TGI: 11.6 µM
SF-539 CNS
  GI50: 1.05 µM
  TGI: 3.7 µM
HS 578T breast
  GI50: 2.06 µM
  TGI: 54.5 µM
HCT-116 colon
  GI50: 0.574 µM
  TGI: > 100 µM

## c1cc(C[S+]2CCCC2)ccc1C[S+]1CCCC1
OVCAR-5 ovarian
  TGI: > 100 µM
HT29 colon
  TGI: > 100 µM
COLO 205 colon
  TGI: > 100 µM
T-47D breast
  TGI: > 100 µM
NCI-H226 lung
  TGI: > 100 µM
MDA-MB-435
  TGI: > 100 µM
MDA-MB-231 breast
  TGI: > 100 µM
SF-539 CNS
  TGI: > 100 µM
HS 578T breast
  TGI: > 100 µM
HCT-116 colon
  TGI: > 100 µM

## CC(=N\O)/C(C)=N/O.CC(=N\O)/C(C)=N/O.CC(=N\O)/C(C)=N/O.CC(=N\O)/C(C)=N/O.[Cu].[Cu]
OVCAR-5 ovarian
  GI50: 19.3 µM
  TGI: 34 µM
HT29 colon
  GI50: 17.7 µM
  TGI: 35.4 µM
COLO 205 colon
  GI50: 18.8 µM
  TGI: 34 µM
T-47D breast
  GI50: 18.4 µM
  TGI: 33.7 µM
NCI-H226 lung
  GI50: 23.5 µM
  TGI: 39.2 µM
MDA-MB-435
  GI50: 18.5 µM
  TGI: 33.7 µM
MDA-MB-231 breast
  GI50: 20.3 µM
  TGI: 35.6 µM
SF-539 CNS
  GI50: 20.8 µM
  TGI: 37.2 µM
HS 578T breast
  GI50: 29.6 µM
  TGI: 65.9 µM
HCT-116 colon
  GI50: 19.2 µM
  TGI: 35.6 µM

## O=CN1N=C(c2ccc(Nc3ccnc4cc(Cl)ccc34)cc2)CC1c1ccccc1 (stereo not given)
OVCAR-5 ovarian
  GI50: 19.8 µM
  TGI: > 100 µM
HT29 colon
  GI50: 3.21 µM
  TGI: 11.1 µM
COLO 205 colon
  GI50: 2.21 µM
  TGI: 6.15 µM
T-47D breast
  GI50: 2.18 µM
  TGI: 7.42 µM
NCI-H226 lung
  GI50: 5.22 µM
  TGI: > 100 µM
MDA-MB-435
  GI50: 1.59 µM
  TGI: 4.67 µM
MDA-MB-231 breast
  GI50: 2.43 µM
  TGI: 13.7 µM
SF-539 CNS
  GI50: 4.57 µM
  TGI: 18.7 µM
HS 578T breast
  GI50: 3.77 µM
  TGI: 71.1 µM
HCT-116 colon
  GI50: 3.58 µM
  TGI: 18.5 µM

## NC(=O)C(Br)CBr (stereo not given)
OVCAR-5 ovarian
  GI50: 5.73 µM
  TGI: 13.7 µM
HT29 colon
  GI50: 1.59 µM
  TGI: 9.42 µM
COLO 205 colon
  GI50: 1.03 µM
  TGI: 2.56 µM
T-47D breast
  GI50: 1.76 µM
  TGI: 6.4 µM
NCI-H226 lung
  GI50: 7.68 µM
  TGI: 27.1 µM
MDA-MB-435
  GI50: 1.74 µM
  TGI: 4.33 µM
MDA-MB-231 breast
  GI50: 2.3 µM
  TGI: 4.76 µM
SF-539 CNS
  GI50: 3.01 µM
  TGI: 10.3 µM
HS 578T breast
  GI50: 2.86 µM
  TGI: 14.3 µM
HCT-116 colon
  GI50: 1.3 µM
  TGI: 2.56 µM

## COc1cc2c(cc1OCCCOC1=C=C=C(c3ccc4c(c3)c3cc(-c5ccc(OCCCOc6cc7c(cc6OC)C(=O)N6CCC[C@H]6C=N7)cc5)ccc3n4S(=O)(=O)c3ccc(C)cc3)C=C1)N=C[C@@H]1CCCN1C2=O
OVCAR-5 ovarian
  GI50: 5.87 µM
  TGI: 17.8 µM
HT29 colon
  GI50: 1.44 µM
  TGI: > 20.5 µM
COLO 205 colon
  GI50: 1.9 µM
  TGI: 9.78 µM
T-47D breast
  GI50: 1.3 µM
  TGI: 19.1 µM
NCI-H226 lung
  GI50: 4 µM
  TGI: 12.9 µM
MDA-MB-435
  GI50: 2.07 µM
  TGI: 5.25 µM
MDA-MB-231 breast
  GI50: 5.31 µM
  TGI: 16 µM
SF-539 CNS
  GI50: 1.74 µM
  TGI: 6.3 µM
HS 578T breast
  GI50: 1.42 µM
  TGI: > 10.8 µM
HCT-116 colon
  GI50: 1.62 µM
  TGI: 7.05 µM

## O=Nc1c(-c2cccc([N+](=O)[O-])c2)nc2cnccn12
OVCAR-5 ovarian
  TGI: 44 µM
HT29 colon
  TGI: 40.1 µM
COLO 205 colon
  TGI: 66.7 µM
T-47D breast
  TGI: 49.6 µM
NCI-H226 lung
  TGI: 50.7 µM
MDA-MB-435
  TGI: 43.1 µM
MDA-MB-231 breast
  TGI: 26.7 µM
SF-539 CNS
  TGI: 59.1 µM
HS 578T breast
  TGI: > 100 µM
HCT-116 colon
  TGI: 18.8 µM

## COC(=O)Nc1nc2ccc(Oc3ccc(NC(=O)Nc4cccc(Br)c4)cc3)cc2[nH]1
OVCAR-5 ovarian
  GI50: > 11.9 µM
  TGI: > 25 µM
HT29 colon
  GI50: 0.7 µM
  TGI: 3.28 µM
COLO 205 colon
  GI50: 1.48 µM
  TGI: 7 µM
T-47D breast
  GI50: 2.17 µM
  TGI: > 16.7 µM
NCI-H226 lung
  GI50: 7.59 µM
  TGI: > 25 µM
MDA-MB-435
  GI50: 0.0839 µM
  TGI: 0.46 µM
MDA-MB-231 breast
  GI50: 5.74 µM
  TGI: > 25 µM
SF-539 CNS
  GI50: 2.04 µM
  TGI: > 20.8 µM
HS 578T breast
  GI50: 3.16 µM
  TGI: > 19.8 µM
HCT-116 colon
  GI50: 1.32 µM
  TGI: > 12.6 µM

## CN(C)c1ccc(C(=O)c2ccc(N(C)C)c(N)c2)cc1N
OVCAR-5 ovarian
  GI50: 15.8 µM
  TGI: > 100 µM
HT29 colon
  GI50: 1.14 µM
  TGI: 19.2 µM
COLO 205 colon
  GI50: 2.32 µM
  TGI: 18.5 µM
T-47D breast
  GI50: 4.3 µM
  TGI: > 46.1 µM
NCI-H226 lung
  GI50: 16.8 µM
  TGI: > 82.5 µM
MDA-MB-435
  GI50: 0.422 µM
  TGI: 1.25 µM
MDA-MB-231 breast
  GI50: 5.81 µM
  TGI: > 77.6 µM
SF-539 CNS
  GI50: 3.92 µM
  TGI: 26.5 µM
HS 578T breast
  GI50: 1.75 µM
  TGI: > 21.2 µM
HCT-116 colon
  GI50: 2.4 µM
  TGI: 31.3 µM
